Patent publication EP4001279A1, “NOVEL SPIROPYRROLIDINE DERIVED ANTIVIRAL AGENTS” (Enanta Pharmaceuticals, Inc., priority 2020, dated 2022)

System: 229E human corona virus (hCoV)
Assay: 229E live virus assay (CPE, ATPlite readout in MRC-5 cells)
Type: cell-based, hCoV-229E
Settings: Human coronavirus 229E, MRC5, hCoV-229E live virus, MOI 0.05, ATPlite readout, run in duplicate

SMILES	EC50
[2H]C([2H])([2H])N(C(=O)[C@@H](O)c1ccccc1)[C@@H](CC(C)(C)C)C(=O)N1C[C@]2(C[C@H]1C#N)C(=O)Nc1ccccc12 [Example 427]	< 100 nM
[2H]C([2H])([2H])N(C(=O)[C@H](O)c1ccccc1)[C@@H](CC(C)(C)C)C(=O)N1C[C@]2(C[C@H]1C#N)C(=O)Nc1ccccc12 [Example 428]	< 100 nM
CC(C)C[C@@H](C(=O)N1C[C@]2(C[C@H]1C#N)C(=O)Nc1ccccc12)N(C(=O)C(F)(F)F)C(C)C [Example 432]	> 1000 nM
CC(C)(C)C[C@H](NC(=O)Nc1ccccc1)C(=O)N1C[C@]2(C[C@H]1C#N)C(=O)Nc1ccccc12 [Example 435]	< 100 nM
CC(C)(C)C[C@H](NC(=O)Nc1ccc(F)cc1F)C(=O)N1C[C@]2(C[C@H]1C#N)C(=O)Nc1ccccc12 [Example 436]	< 100 nM
CC(C)(C)C[C@H](NC(=O)Nc1c(F)cccc1F)C(=O)N1C[C@]2(C[C@H]1C#N)C(=O)Nc1ccccc12 [Example 437]	< 100 nM
Cc1cccc(C)c1NC(=O)N[C@@H](CC(C)(C)C)C(=O)N1C[C@]2(C[C@H]1C#N)C(=O)Nc1ccccc12 [Example 438]	< 100 nM
CC(C)(C)C[C@H](NC(=O)Nc1ccc2ccccc2c1)C(=O)N1C[C@]2(C[C@H]1C#N)C(=O)Nc1ccccc12 [Example 439]	< 100 nM
CC(C)(C)C[C@H](NC(=O)NC1CCCCC1)C(=O)N1C[C@]2(C[C@H]1C#N)C(=O)Nc1ccccc12 [Example 440]	< 100 nM
CC(C)(C)C[C@H](NC(=O)Nc1ccc(F)cc1)C(=O)N1C[C@]2(C[C@H]1C#N)C(=O)Nc1ccccc12 [Example 441]	< 100 nM
CC(=O)C[C@@H](C(=O)N1C[C@]2(C[C@H]1C#N)C(=O)Nc1ccccc12)N(C)C(=O)c1cc2c(F)cc(F)cc2[nH]1 [Example 442]	< 100 nM
CN(C(=O)c1cc2c(F)cc(F)cc2[nH]1)[C@@H](CC(C)(C)O)C(=O)N1C[C@]2(C[C@H]1C#N)C(=O)Nc1ccccc12 [Example 443]	100 to 1000 nM
CN(C(=O)c1cc2c(F)cc(F)c(F)c2[nH]1)[C@@H](CC(C)(C)O)C(=O)N1C[C@]2(C[C@H]1C#N)C(=O)Nc1ccccc12 [Example 444]	100 to 1000 nM
CC(C)(F)C[C@H](NC(=O)COc1ccc(F)cc1F)C(=O)N1C[C@]2(C[C@H]1C#N)C(=O)Nc1ccc(Cl)cc12 [Example 445]	100 to 1000 nM
CC(C)(F)C[C@H](NC(=O)c1cc2ccccn2n1)C(=O)N1C[C@]2(C[C@H]1C#N)C(=O)Nc1ccc(Cl)cc12 [Example 446]	100 to 1000 nM
CC(C)(F)C[C@H](NC(=O)c1cccc(OC(F)(F)F)c1)C(=O)N1C[C@]2(C[C@H]1C#N)C(=O)Nc1ccc(Cl)cc12 [Example 447]	100 to 1000 nM
CC(C)(C)C[C@H](NC(=O)c1cc2c(F)cc(F)cc2[nH]1)C(=O)N1C[C@]2(C[C@H]1C#N)C(=O)Nc1ccc(Cl)cc12 [Example 448]	< 100 nM
CC(C)(F)C[C@H](NC(=O)c1ccc(F)cc1F)C(=O)N1C[C@]2(C[C@H]1C#N)C(=O)Nc1ccc(Cl)cc12 [Example 449]	100 to 1000 nM
CC(C)(C)C[C@H](NC(=O)c1cc2c(Cl)cccc2[nH]1)C(=O)N1C[C@]2(C[C@H]1C#N)C(=O)Nc1ccc(Cl)cc12 [Example 450]	< 100 nM
N#C[C@@H]1C[C@@]2(CN1C(=O)[C@H](Cc1ccccc1F)NC(=O)c1cc3c(F)cc(F)cc3[nH]1)C(=O)Nc1ccc(Cl)cc12 [Example 451]	100 to 1000 nM
N#C[C@@H]1C[C@@]2(CN1C(=O)[C@H](Cc1ccc(F)cc1)NC(=O)c1cc3c(F)cc(F)cc3[nH]1)C(=O)Nc1ccc(Cl)cc12 [Example 452]	100 to 1000 nM
[2H]C([2H])([2H])N(C(=O)c1cc2c(F)cc(F)cc2[nH]1)[C@@H](CC(C)(C)F)C(=O)N1C[C@]2(C[C@H]1C#N)C(=O)Nc1ccc(Cl)cc12 [Example 454, N-((S)-1-((3R,5'S)-5-chloro-5'-cyano-2-oxospiro[indoline-3,3'-pyrrolidin]-1'-yl)-4-fluoro-4-methyl-1-oxopentan-2-yl)-4,6-difluoro-N-(methyl-d3)-1H-indole-2-carboxamide]	< 100 nM
CN(C(=O)c1cc2c(F)cc(F)cc2[nH]1)[C@@H](CC(C)(C)F)C(=O)N1C[C@]2(C[C@H]1C#N)C(=O)Nc1ccc(Cl)cc12 [Example 455]	< 100 nM
[2H]C([2H])([2H])N(C(=O)c1cc2c(F)cc(F)cc2[nH]1)[C@@H](CC(C)(C)F)C(=O)N1C[C@]2(C[C@H]1C#N)C(=O)Nc1cc(C(F)(F)F)ccc12 [Example 472, N-((S)-1-((3R,5'S)-5'-cyano-2-oxo-6-(trifluoromethyl)spiro[indoline-3,3'-pyrrolidin]-1-yl)-4-fluoro-4-methyl-1-oxopentan-2-yl)-4,6-difluoro-N-(methyl-d3)-1H-indole-2-carboxamide]	< 100 nM

SMILES	EC50
CN(C(=O)C1(c2ccncc2)CC1)[C@@H](CC(C)(C)F)C(=O)N1C[C@]2(C[C@H]1C#N)C(=O)Nc1ccc(Cl)cc12 [Example 473, N-((S)-1-((3R,5'S)-5-chloro-5'-cyano-2-oxospiro[indoline-3,3'-pyrrolidin]-1'-yl)-4-fluoro-4-methyl-1-oxopentan-2-yl)-N-methyl-1-(pyridin-4-yl)cyclopropane-1-carboxamide]	100 to 1000 nM
[2H]C([2H])([2H])N(C(=O)Cc1ccncc1)[C@@H](CC(C)(C)F)C(=O)N1C[C@]2(C[C@H]1C#N)C(=O)Nc1ccc(Cl)cc12 [Example 474]	100 to 1000 nM
[2H]C([2H])([2H])N(C(=O)C1(c2ccncc2)CC1)[C@@H](CC(C)(C)F)C(=O)N1C[C@]2(C[C@H]1C#N)C(=O)Nc1ccc(Cl)cc12 [Example 475]	100 to 1000 nM
CN(C(=O)Cc1cccnc1)[C@@H](CC(C)(C)F)C(=O)N1C[C@]2(C[C@H]1C#N)C(=O)Nc1ccc(Cl)cc12 [Example 476]	100 to 1000 nM
CN(C(=O)Cc1ccncc1)[C@@H](CC(C)(C)F)C(=O)N1C[C@]2(C[C@H]1C#N)C(=O)Nc1ccc(Cl)cc12 [Example 477]	100 to 1000 nM
CN(C(=O)C1(c2ccccn2)CC1)[C@@H](CC(C)(C)F)C(=O)N1C[C@]2(C[C@H]1C#N)C(=O)Nc1ccc(Cl)cc12 [Example 478]	100 to 1000 nM
CN(C(=O)C1(c2cccnc2)CC1)[C@@H](CC(C)(C)F)C(=O)N1C[C@]2(C[C@H]1C#N)C(=O)Nc1ccc(Cl)cc12 [Example 479]	100 to 1000 nM
CN(C(=O)C(F)(F)c1ccncc1)[C@@H](CC(C)(C)F)C(=O)N1C[C@]2(C[C@H]1C#N)C(=O)Nc1ccc(Cl)cc12 [Example 480]	< 100 nM
CN(C(=O)C(F)(F)c1ccccn1)[C@@H](CC(C)(C)F)C(=O)N1C[C@]2(C[C@H]1C#N)C(=O)Nc1ccc(Cl)cc12 [Example 481]	100 to 1000 nM
CN(C(=O)C(F)(F)c1cccnc1)[C@@H](CC(C)(C)F)C(=O)N1C[C@]2(C[C@H]1C#N)C(=O)Nc1ccc(Cl)cc12 [Example 482]	< 100 nM
CN(C(=O)Cc1ccccn1)[C@@H](CC(C)(C)F)C(=O)N1C[C@]2(C[C@H]1C#N)C(=O)Nc1ccc(Cl)cc12 [Example 483]	100 to 1000 nM
CN(C(=O)Cc1cnccn1)[C@@H](CC(C)(C)F)C(=O)N1C[C@]2(C[C@H]1C#N)C(=O)Nc1ccc(Cl)cc12 [Example 484]	100 to 1000 nM
CN(C(=O)Cc1cccc(C(F)(F)F)n1)[C@@H](CC(C)(C)F)C(=O)N1C[C@]2(C[C@H]1C#N)C(=O)Nc1ccc(Cl)cc12 [Example 485]	100 to 1000 nM
Cc1cccc(C(F)(F)C(=O)N(C)[C@@H](CC(C)(C)F)C(=O)N2C[C@]3(C[C@H]2C#N)C(=O)Nc2ccc(Cl)cc23)n1 [Example 486]	100 to 1000 nM
Cc1cccc(CC(=O)N(C)[C@@H](CC(C)(C)F)C(=O)N2C[C@]3(C[C@H]2C#N)C(=O)Nc2ccc(Cl)cc23)n1 [Example 487]	100 to 1000 nM
N#C[C@@H]1C[C@@]2(CN1C(=O)[C@H](CC1CC1)NC(=O)OCc1c(F)cccc1F)C(=O)Nc1ccc(Cl)cc12 [Example 492, 2,6-difluorobenzyl ((S)-1-((3R,5'S)-5-chloro-5'-cyano-2-oxospiro[indoline-3,3'-pyrrolidin]-1'-yl)-3-cyclopropyl-1-oxopropan-2-yl)carbamate]	100 to 1000 nM
N#C[C@@H]1C[C@@]2(CN1C(=O)[C@H](CC1CC1)NC(=O)OCc1ccc(F)cc1F)C(=O)Nc1ccc(Cl)cc12 [Example 493]	100 to 1000 nM
C[C@@H](OC(=O)N[C@@H](CC(C)(C)C)C(=O)N1C[C@]2(C[C@H]1C#N)C(=O)Nc1ccc(Cl)cc12)c1ccc(F)cc1 [Example 495]	100 to 1000 nM
CC(C)(C)C[C@H](NC(=O)OC(C)(C)c1ccc(F)cc1)C(=O)N1C[C@]2(C[C@H]1C#N)C(=O)Nc1ccc(Cl)cc12 [Example 496]	> 1000 nM
CC(C)C[C@@H](C(=O)N1C[C@]2(C[C@H]1C(=O)O)C(=O)Nc1ccc(Cl)cc12)N(C)C(=O)c1cc2c(F)cc(F)cc2[nH]1 [Example 497, (3R,5'S)-5-chloro-1'-(N-(4,6-difluoro-1H-indole-2-carbonyl)-N-methyl-L-leucyl)-2-oxospiro[indoline-3,3'-pyrrolidine]-5'-carboxylic acid]	> 1000 nM
C=C(C)c1ccc2c(c1)[C@@]1(C[C@@H](C#N)N(C(=O)[C@H](CC(C)C)N(C)C(=O)c3cc4c(F)cc(F)cc4[nH]3)C1)C(=O)N2 [Example 498, N-((S)-1-((3R,5'S)-5'-cyano-2-oxo-5-(prop-1-en-2-yl)spiro[indoline-3,3'-pyrrolidin]-1'-yl)-4-methyl-1-oxopentan-2-yl)-4,6-difluoro-N-methyl-1H-indole-2-carboxamide]	< 100 nM
CC(=O)c1ccc2c(c1)[C@@]1(C[C@@H](C#N)N(C(=O)[C@H](CC(C)C)N(C)C(=O)c3cc4c(F)cc(F)cc4[nH]3)C1)C(=O)N2 [Example 499, N-((S)-1-((3R,5'S)-5-acetyl-5'-cyano-2-oxospiro[indoline-3,3'-pyrrolidin]-1'-yl)-4-methyl-1-oxopentan-2-yl)-4,6-difluoro-N-methyl-1H-indole-2-carboxamide]	< 100 nM
CC(C)C[C@@H](C(=O)N1C[C@]2(C[C@H]1C#N)C(=O)Nc1ccc(S(C)(=O)=O)cc12)N(C)C(=O)c1cc2c(F)cc(F)cc2[nH]1 [Example 500, N-((S)-1-((3R,5'S)-5'-cyano-5-(methylsulfonyl)-2-oxospiro[indoline-3,3'-pyrrolidin]-1'-yl)-4-methyl-1-oxopentan-2-yl)-4,6-difluoro-N-methyl-1H-indole-2-carboxamide]	< 100 nM
